From ChEMBL document CHEMBL4373746, “Structural attributes influencing unbound tissue distribution” (Eur J Med Chem, 2020) come the findings set out here.

Series [1] is described as follows: Fraction unbound in Wistar Han rat plasma at 2 uM incubated for 6 hrs by equilibrium dialysis method.
Series [2] in a line: Fraction unbound in Wistar Han rat white adipose tissue at 2 uM incubated for 6 hrs by equilibrium dialysis method.
A short description of series [3]: Fraction unbound in Wistar Han rat brain at 2 uM incubated for 6 hrs by equilibrium dialysis method.
Series [4] can be described thus: Fraction unbound in Wistar Han rat heart at 2 uM incubated for 6 hrs by equilibrium dialysis method.
Series [5] can be described thus: Fraction unbound in Wistar Han rat liver at 2 uM incubated for 6 hrs by equilibrium dialysis method.
Series [6] in a line: Fraction unbound in Wistar Han rat skeletal muscle at 2 uM incubated for 6 hrs by equilibrium dialysis method.
Series [7] is described as follows: Total plasma concentration in Wistar Han rat at 1 to 2 mg/kg, iv infused for 10 to 20 hrs by LC-MS/MS analysis. Conditions: in vivo.
Series [8] in a line: Drug concentration in total white adipose tissue in Wistar Han rat at 1 to 2 mg/kg, iv infused for 10 to 20 hrs by LC-MS/MS analysis. Conditions: in vivo.
Series [9] in a line: Drug concentration in total brain in Wistar Han rat at 1 to 2 mg/kg, iv infused for 10 to 20 hrs by LC-MS/MS analysis. Conditions: in vivo.
A short description of series [10]: Drug concentration in total heart in Wistar Han rat at 1 to 2 mg/kg, iv infused for 10 to 20 hrs by LC-MS/MS analysis. Conditions: in vivo.
The nature of series [11]: Drug concentration in total liver in Wistar Han rat at 1 to 2 mg/kg, iv infused for 10 to 20 hrs by LC-MS/MS analysis. Conditions: in vivo.
Series [12] is described as follows: Drug concentration in total skeletal muscle in Wistar Han rat at 1 to 2 mg/kg, iv infused for 10 to 20 hrs by LC-MS/MS analysis. Conditions: in vivo.
Series [13] is described as follows: Unbound tissue partition coefficient, ratio of drug level in heart to plasma in Wistar Han rat at 1 to 2 mg/kg, iv infused for 10 to 20 hrs by LC-MS/MS analysis.
Series [14] in a line: Unbound tissue partition coefficient, ratio of drug level in brain to plasma in Wistar Han rat at 1 to 2 mg/kg, iv infused for 10 to 20 hrs by LC-MS/MS analysis.
Series [15] can be described thus: Unbound tissue partition coefficient, ratio of drug level in adipose to plasma in Wistar Han rat at 1 to 2 mg/kg, iv infused for 10 to 20 hrs by LC-MS/MS analysis.
Series [16] is described as follows: Unbound tissue partition coefficient, ratio of drug level in liver to plasma in Wistar Han rat at 1 to 2 mg/kg, iv infused for 10 to 20 hrs by LC-MS/MS analysis.
A short description of series [17]: Unbound tissue partition coefficient, ratio of drug level in skeletal muscle to plasma in Wistar Han rat at 1 to 2 mg/kg, iv infused for 10 to 20 hrs by LC-MS/MS analysis.
The nature of series [18]: Unbound tissue partition coefficient, ratio of drug level in brain to plasma in mouse administered as single dose. The class given is ADME. Conditions: read-out: K(p,uu,brain).
Series [19] can be described thus: Apparent permeability of the compound across dog RRCK cells by MDCK-LE assay.

`CN(C)C(=O)C(CCN1CCC(O)(c2ccc(Cl)cc2)CC1)(c1ccccc1)c1ccccc1` [LOPERAMIDE]: the fraction unbound at 6 h, 2 µM in series [1] was found to be 0.0462; in series [2], 0.00264; in series [3] it was 0.00591; in [4], 0.00677; in [5], 0.000644; in series [6] it was 0.0022. In series [7], the Cp stood at 74 ng/mL. Further, the Ct in series [8] was 130 ng/mL; in series [9], 1.3 ng/mL; in series [10], 390 ng/mL; in series [11], 590 ng/mL; in series [12] it was 170 ng/mL. Also, the Kp uu came to 0.79 in [13] (heart/plasma); 0.002 in series [14] (brain/plasma); 0.1 in [15] (adipose/plasma); 0.11 in series [16] (liver/plasma); 0.11 in series [17] (skeletal muscle/plasma); 0.059 in series [18]. The Papp in series [19] was determined as 2.7 ×10⁻⁶ cm/s.
In turn, `COc1cc2nc(N3CCN(C(=O)c4ccco4)CC3)nc(N)c2cc1OC` [PRAZOSIN] returned a Cp in [7] of 40 ng/mL. The Ct came out at 33 ng/mL in series [8]; 11 ng/mL in [9]; 180 ng/mL in [10]; 640 ng/mL in series [11]; 100 ng/mL in series [12]. For the same molecule, the Kp uu was 2.4 in series [13] (other tissue); 0.11 in series [14] (brain); 1.2 in series [15] (other tissue); 2.8 in series [16] (other tissue); 0.68 in series [17] (other tissue); 0.059 in series [18]. The Papp in [19] was 26 ×10⁻⁶ cm/s.
For the molecule `CN1CC[C@H](c2c(O)cc(O)c3c(=O)cc(-c4ccccc4Cl)oc23)[C@H](O)C1` [ALVOCIDIB], the fraction unbound at 6 h, 2 µM in [1] turned out to be 0.147; in series [2], 1; in [3], 0.0442; in series [4], 0.0624; in series [5] it was 0.021; in series [6] it was 0.033. This molecule displayed a Cp in series [7] of 14 ng/mL. Further, the Ct turned out to be 5.6 ng/mL in [8]; 2.9 ng/mL in [9]; 56 ng/mL in series [10]; 32 ng/mL in [11]; 52 ng/mL in [12]. For the same molecule, the Kp uu came out at 1.7 in series [13] (heart/plasma); 0.06 in series [14] (brain/plasma); 2.7 in [15] (adipose/plasma); 0.33 in series [16] (liver/plasma); 0.86 in [17] (skeletal muscle/plasma); 0.065 in series [18]. Also, the Papp in [19] was 22 ×10⁻⁶ cm/s.
In series [7] (Wistar Han), `CC(C)c1nc(CN(C)C(=O)N[C@H](C(=O)N[C@@H](Cc2ccccc2)C[C@H](O)[C@H](Cc2ccccc2)NC(=O)OCc2cncs2)C(C)C)cs1` [RITONAVIR] yielded a Cp of 27 ng/mL. The Ct in series [8] (Wistar Han) came to 31 ng/mL; in series [9] (Wistar Han) it was 0.38 ng/mL; in [10] (Wistar Han), 170 ng/mL; in series [11] (Wistar Han), 370 ng/mL; in series [12] (Wistar Han) it was 42 ng/mL. Besides, the Kp uu was 9.6 in [13] (other tissue); 0.0018 in series [14] (brain); 9.6 in series [15] (other tissue); 1.2 in [16] (other tissue); 0.56 in series [17] (other tissue); 0.019 in series [18]. The Papp in series [19] was 9.9 ×10⁻⁶ cm/s.
Regarding `CC1(OC(=O)N2CCC(n3ncc(COc4ccc(C(N)=O)cc4F)c3C#N)CC2)CC1`, the fraction unbound at 6 h, 2 µM came to 0.044 in [1]; 0.137 in series [2]; 0.0366 in series [3]; 0.0693 in [4]; 0.0561 in series [5]; 0.0634 in series [6]. This molecule also gave a Cp in series [7] of 150 ng/mL. The Ct in series [8] was 73 ng/mL; in series [9], 40 ng/mL; in [10] it was 220 ng/mL; in series [11] it was 520 ng/mL; in series [12], 100 ng/mL. The Kp uu amounted to 2.8 in [13] (heart/plasma); 0.24 in series [14] (brain/plasma); 1.6 in series [15] (adipose/plasma); 4.7 in series [16] (liver/plasma); 1 in series [17] (skeletal muscle/plasma). In addition, the Papp in series [19] was determined as 26 ×10⁻⁶ cm/s.
Regarding `COc1cc2c(cc1Cc1ccccc1)C[C@H](N)C(=O)N2OC(=O)N(C)C`, the fraction unbound at 6 h, 2 µM in [1] was 0.354; in series [2], 0.214; in series [3] it was 0.0385; in [4], 0.209; in series [5], 0.147; in [6], 0.0886. This molecule returned a Cp in series [7] of 18 ng/mL. Further, the Ct in series [8] turned out to be 33 ng/mL; in series [9], 16 ng/mL; in [10] it was 76 ng/mL; in series [11], 33 ng/mL; in series [12], 32 ng/mL. The Kp uu was found to be 2.5 in series [13] (heart/plasma); 0.1 in series [14] (brain/plasma); 1.1 in series [15] (adipose/plasma); 0.74 in series [16] (liver/plasma); 0.46 in series [17] (skeletal muscle/plasma). For the same molecule, in [19], the Papp stood at 38 ×10⁻⁶ cm/s.
For `Cn1nc(C(=O)NCCN2CCOCC2)cc1-c1cc2ccccc2[nH]1`, the free fraction (fraction unbound) at 6 h, 2 µM in series [1] worked out at 0.176; in series [2] it was 0.189; in series [3], 0.0291; in series [4], 0.0422; in [5] it was 0.0714; in series [6], 0.0664. This molecule also showed a Cp in [7] of 29 ng/mL. For the same molecule, the Ct in [8] was 29 ng/mL; in series [9], 19 ng/mL; in [10] it was 150 ng/mL; in [11], 300 ng/mL; in [12], 42 ng/mL. The Kp uu was determined as 1.3 in series [13] (heart/plasma); 0.12 in [14] (brain/plasma); 1.1 in [15] (adipose/plasma); 4.4 in series [16] (liver/plasma); 0.57 in series [17] (skeletal muscle/plasma). For the same molecule, the Papp in series [19] is 33 ×10⁻⁶ cm/s.
